Source: ChEMBL document CHEMBL4402545, “Subtype Selective γ-Aminobutyric Acid Type A Receptor (GABAAR) Modulators Acting at the Benzodiazepine Binding Site: An Update” (J Med Chem, 2020)
pKi: −log10 of the molar value.

Legend:
[1] = target: T1, GABA-A receptor; alpha-5/beta-3/gamma-2 (Homo sapiens, UniProt P18507+P28472+P31644); test: Displacement of [3H]-flumazenil from human GABAA alpha5beta3gamma2 expressed in Ltk cells; type: cell-based
T1 sequence (P18507 whole entry): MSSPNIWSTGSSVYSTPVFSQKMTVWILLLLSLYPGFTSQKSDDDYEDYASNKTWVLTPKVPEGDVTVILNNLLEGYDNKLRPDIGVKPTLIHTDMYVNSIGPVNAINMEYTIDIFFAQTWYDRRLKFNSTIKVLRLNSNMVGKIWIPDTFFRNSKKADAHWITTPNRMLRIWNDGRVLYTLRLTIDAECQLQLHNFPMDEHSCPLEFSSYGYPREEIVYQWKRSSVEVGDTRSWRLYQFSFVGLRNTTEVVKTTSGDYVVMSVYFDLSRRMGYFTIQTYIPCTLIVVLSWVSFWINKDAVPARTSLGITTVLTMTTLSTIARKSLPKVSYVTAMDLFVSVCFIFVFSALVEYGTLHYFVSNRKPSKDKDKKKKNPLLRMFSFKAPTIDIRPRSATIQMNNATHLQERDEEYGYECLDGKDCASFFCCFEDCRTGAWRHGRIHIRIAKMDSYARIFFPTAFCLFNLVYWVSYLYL
T1 sequence (P28472 whole entry): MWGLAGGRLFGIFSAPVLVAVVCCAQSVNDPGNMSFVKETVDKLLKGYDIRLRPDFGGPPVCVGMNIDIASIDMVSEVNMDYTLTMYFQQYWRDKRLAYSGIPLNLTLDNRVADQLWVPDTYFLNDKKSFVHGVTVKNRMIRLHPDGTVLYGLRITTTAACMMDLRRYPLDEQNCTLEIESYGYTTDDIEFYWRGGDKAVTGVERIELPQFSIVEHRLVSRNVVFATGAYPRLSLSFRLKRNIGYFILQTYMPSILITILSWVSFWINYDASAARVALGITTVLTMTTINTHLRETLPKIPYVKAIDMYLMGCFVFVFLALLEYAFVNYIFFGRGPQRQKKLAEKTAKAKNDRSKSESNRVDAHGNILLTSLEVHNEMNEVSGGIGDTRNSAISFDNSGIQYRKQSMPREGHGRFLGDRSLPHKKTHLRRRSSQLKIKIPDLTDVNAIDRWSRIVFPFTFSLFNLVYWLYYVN
T1 sequence (P31644 whole entry): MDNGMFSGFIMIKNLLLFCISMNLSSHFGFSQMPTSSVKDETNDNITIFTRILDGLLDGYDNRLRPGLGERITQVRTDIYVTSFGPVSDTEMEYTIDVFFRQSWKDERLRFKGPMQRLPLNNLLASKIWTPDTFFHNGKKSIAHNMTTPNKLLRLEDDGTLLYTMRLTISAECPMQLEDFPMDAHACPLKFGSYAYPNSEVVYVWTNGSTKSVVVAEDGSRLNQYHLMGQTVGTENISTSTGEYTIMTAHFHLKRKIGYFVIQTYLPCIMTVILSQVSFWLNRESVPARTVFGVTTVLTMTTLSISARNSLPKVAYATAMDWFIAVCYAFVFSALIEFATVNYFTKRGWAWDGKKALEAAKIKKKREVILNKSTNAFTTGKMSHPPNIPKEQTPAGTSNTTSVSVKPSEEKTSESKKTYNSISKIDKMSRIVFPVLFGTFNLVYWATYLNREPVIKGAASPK

[2] = target: GABA-A receptor; alpha-3/beta-3/gamma-2 (Homo sapiens) (UniProt P18507+P28472+P34903); test: Positive allosteric modulation of recombinant human GABAA alpha3beta3gamma2 expressed in Ltk cells assessed as […] current response by whole cell patch clamp method relative to chlordiazepoxide; type: cell-based
[3] = target: GABA-A receptor; alpha-1/beta-3/gamma-2 (Homo sapiens) (UniProt P14867+P18507+P28472); test: Positive allosteric modulation of recombinant human GABAA alpha1beta3gamma2 expressed in Ltk cells assessed as […] current response by whole cell patch clamp method relative to chlordiazepoxide; type: cell-based
[4] = target: GABA-A receptor; alpha-5/beta-3/gamma-2 (Homo sapiens) (UniProt P18507+P28472+P31644); test: Positive allosteric modulation of recombinant human GABAA alpha5beta3gamma2 expressed in Ltk cells assessed as […] current response by whole cell patch clamp method relative to chlordiazepoxide; type: cell-based
Rattus norvegicus [5] = test: In vivo receptor occupancy at GABAA receptor in po dosed Sprague-Dawley rat assessed as brain concentration causing 50% reduction in [3H]-flumazenil receptor labeling by scintillation counting method; type: functional
Homo sapiens [6] = organism: Homo sapiens; test: Positive allosteric modulation of recombinant human GABAA alpha2beta3gamma2 expressed in Ltk cells assessed as […] current response by whole cell patch clamp method relative to chlordiazepoxide; type: cell-based
[7] = Displacement of [3H]-flumazenil from human GABAA alpha2beta3gamma2 expressed in Ltk cells; type: cell-based
[8] = target: T2, GABA-A receptor; alpha-1/beta-3/gamma-2 (Homo sapiens, UniProt P14867+P18507+P28472); test: Displacement of [3H]-flumazenil from human GABAA alpha1beta3gamma2 expressed in Ltk cells; type: cell-based
T2 sequence (P14867 whole entry): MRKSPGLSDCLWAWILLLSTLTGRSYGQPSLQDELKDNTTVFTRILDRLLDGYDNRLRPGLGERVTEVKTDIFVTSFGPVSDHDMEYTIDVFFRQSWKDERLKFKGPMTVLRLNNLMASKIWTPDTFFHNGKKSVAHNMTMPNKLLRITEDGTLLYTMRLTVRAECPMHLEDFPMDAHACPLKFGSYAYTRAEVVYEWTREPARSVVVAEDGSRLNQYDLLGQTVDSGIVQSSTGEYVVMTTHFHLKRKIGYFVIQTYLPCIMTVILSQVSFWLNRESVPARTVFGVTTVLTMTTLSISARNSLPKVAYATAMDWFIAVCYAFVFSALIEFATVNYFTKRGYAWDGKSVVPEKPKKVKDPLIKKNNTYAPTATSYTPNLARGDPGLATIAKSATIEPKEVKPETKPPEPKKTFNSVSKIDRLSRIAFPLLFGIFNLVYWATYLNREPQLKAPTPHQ
T2 sequence (P18507 whole entry): T1 sequence (P18507 whole entry)
T2 sequence (P28472 whole entry): T1 sequence (P28472 whole entry)

[9] = target: T3, GABA-A receptor; alpha-3/beta-3/gamma-2 (Homo sapiens, UniProt P18507+P28472+P34903); test: Displacement of [3H]-flumazenil from human GABAA alpha3beta3gamma2 expressed in Ltk cells; type: cell-based
T3 sequence (P18507 whole entry): T1 sequence (P18507 whole entry)
T3 sequence (P28472 whole entry): T1 sequence (P28472 whole entry)
T3 sequence (P34903 whole entry): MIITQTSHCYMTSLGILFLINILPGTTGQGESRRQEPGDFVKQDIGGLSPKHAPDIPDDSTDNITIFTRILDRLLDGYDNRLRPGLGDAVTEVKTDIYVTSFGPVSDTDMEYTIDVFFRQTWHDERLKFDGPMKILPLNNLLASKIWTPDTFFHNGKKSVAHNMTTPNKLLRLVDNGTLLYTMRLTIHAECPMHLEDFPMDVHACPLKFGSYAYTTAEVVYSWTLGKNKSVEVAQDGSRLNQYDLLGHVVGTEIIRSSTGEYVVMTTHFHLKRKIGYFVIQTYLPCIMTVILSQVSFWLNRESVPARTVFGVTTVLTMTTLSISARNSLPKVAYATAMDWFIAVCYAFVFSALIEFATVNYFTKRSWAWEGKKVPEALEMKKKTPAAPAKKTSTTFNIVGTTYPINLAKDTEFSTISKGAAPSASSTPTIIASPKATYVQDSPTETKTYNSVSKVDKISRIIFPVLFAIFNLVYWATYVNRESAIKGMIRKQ

[10] = target: T4, Gamma-aminobutyric acid receptor subunit alpha-2 (Homo sapiens) (UniProt P47869); test: Positive allosteric modulation of GABAA alpha2 (unknown origin) relative to control
T4 sequence (whole entry): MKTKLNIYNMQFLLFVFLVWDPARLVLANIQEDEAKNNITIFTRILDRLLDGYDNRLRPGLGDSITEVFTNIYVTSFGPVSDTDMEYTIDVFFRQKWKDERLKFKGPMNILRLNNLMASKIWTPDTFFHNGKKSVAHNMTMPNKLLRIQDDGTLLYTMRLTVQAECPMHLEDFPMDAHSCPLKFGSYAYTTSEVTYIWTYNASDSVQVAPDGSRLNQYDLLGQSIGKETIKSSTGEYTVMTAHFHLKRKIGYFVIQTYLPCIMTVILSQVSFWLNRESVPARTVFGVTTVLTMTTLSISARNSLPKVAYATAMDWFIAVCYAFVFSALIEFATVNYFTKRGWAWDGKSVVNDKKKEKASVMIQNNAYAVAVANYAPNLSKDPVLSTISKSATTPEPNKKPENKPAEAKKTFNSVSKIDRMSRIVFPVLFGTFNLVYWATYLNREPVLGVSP

[11] = Half life in rat at 1 mg/kg, po; type: ADME, organism-based; details: in vivo
[12] = target: T5, Gamma-aminobutyric acid receptor subunit alpha-3 (Homo sapiens) (UniProt P34903); test: Binding affinity to GABA-A alpha3 (unknown origin) assessed as increase in induced current relative to control
T5 sequence (whole entry): T3 sequence (P34903 whole entry)

[13] = target: T4, Gamma-aminobutyric acid receptor subunit alpha-2 (Homo sapiens); test: Binding affinity to GABA-A alpha2 (unknown origin) assessed as increase in induced current relative to control
Rattus norvegicus [14] = test: In vivo receptor occupancy at GABAA receptor in po dosed Sprague-Dawley rat assessed as cerebellum concentration causing 50% reduction in [3H]-flumazenil receptor labeling after 1 hr by scintillation counting method; type: functional
[15] = target: T6, Gamma-aminobutyric acid receptor subunit alpha-5 (Homo sapiens) (UniProt P31644); test: Binding affinity to GABA-A alpha5 (unknown origin) assessed as increase in induced current relative to control
T6 sequence (whole entry): T1 sequence (P31644 whole entry)

[16] = Intrinsic clearance in human liver microsomes; type: ADME, Microsome; details: read-out: CLH
[17] = Displacement of [3H]-flumazenil from human GABAA alpha2beta3gamma2 expressed in HEK293 cell membranes measured after 2 hrs by liquid scintillation counting method
Rattus norvegicus [18] = test: In vivo receptor occupancy at GABAA receptor in po dosed Sprague-Dawley rat assessed as spinal cord concentration causing 50% reduction in [3H]-flumazenil receptor labeling after 1 hr by scintillation counting method; type: functional
[19] = target: T7, Gamma-aminobutyric acid receptor subunit alpha-1 (Homo sapiens) (UniProt P14867); test: Binding affinity to GABA-A alpha1 (unknown origin) assessed as increase in induced current relative to control
T7 sequence (whole entry): T2 sequence (P14867 whole entry)

Homo sapiens [20] = test: In vivo receptor occupancy GABAA receptor in human assessed as whole brain concentration causing reduction in [11C]flumazenil receptor labeling at 65 mg after […] by PET method relative to control; type: functional
[21] = Half life in human at 0.04 to 100 mg, po; type: ADME; details: in vivo
Rattus norvegicus [22] = test: In vivo receptor occupancy at GABAA receptor in po dosed Sprague-Dawley rat assessed as forebrain concentration causing 50% reduction in [3H]-flumazenil receptor labeling after 1 hr by scintillation counting method; type: functional
Homo sapiens [23] = test: In vivo receptor occupancy GABAA receptor in human assessed as whole brain concentration causing reduction in [11C]flumazenil receptor labeling at 10 mg after […] by PET method relative to control; type: functional
[24] = target: T7, Gamma-aminobutyric acid receptor subunit alpha-1 (Homo sapiens); test: Positive allosteric modulation of GABAA alpha1 (unknown origin) relative to control

Molecule `Cn1ncnc1COc1nn2c(-c3c(F)cccc3F)nnc2cc1C1CCC1` has a pKi [1] of 9.64, a fold change (FC) [2] of 0.45 and a fold change (FC) [3] of 0.18. The fold change (FC) [4] was 0.18, the Occ50 (Rattus norvegicus [5]) was 2.2 mg/kg and the fold change (FC) (Homo sapiens [6]) was 0.23. For the same molecule, the pKi [7] was 9.40, the pKi [8] was 9.66 and the pKi [9] was 9.68.
`CCn1cnc2c(-c3ccc(F)c(-c4ccc(S(=O)(=O)CC)cc4OC)c3)cnnc21` [DARIGABAT] gave an Activity [10] greater than 50%, a half-life [11] of 5.5 h and a fold change (FC) [12] of 0.49. It also gave a fold change (FC) [13] of 0.35, an Occ50 (Rattus norvegicus [14]) of 0.3 to 1 mg/kg and a fold change (FC) [15] of 0.7. For the same molecule, the microsomal CLint [16] was less than 20 µL/min/mg, the pKi [17] was 8.53 and the Occ50 (Rattus norvegicus [18]) was 0.3 to 1 mg/kg. The fold change (FC) [19] was 0.11, the Occ (Homo sapiens [20]) was 89% and the half-life [21] was 6 to 8.9 h. For the same molecule, the Occ50 (Rattus norvegicus [22]) was 0.3 to 1 mg/kg, the Occ (Homo sapiens [23]) was 69% and the Activity [24] was less than 20%.
